Each structure is given as a SMILES string. Like-named read-outs stand apart in the source and are kept apart here.

Our source for the MIC values is patent US12084445B2, “Broad-spectrum carbapenems” (VenatoRx Pharmaceuticals, Inc., priority 2018, dated 2024).

Type in all cases: cell-based
Assay [1] concerns E. coli ATCC 25922 (wild-type/QC strain). As to the kind of experiment: broth microdilution MIC assay, E. coli ATCC 25922. Particulars: Escherichia coli, ATCC25922, E. coli 25922, read-out: E. coli 25922 MIC. The essentials:
(§1)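 MIC = lowest compound concentration with no visible growth after 16-20 h at 37 °C. Inoculum 5×10^5 CFU/mL from 3-5 h Mueller-Hinton broth cultures standardized by OD600; compounds tested as 2-fold serial dilutions per CLSI.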
(In general: Dilution methods test growth across graded concentrations, often in twofold steps.)

Assay [2] has as its system S. aureus USA400. As to the kind of experiment: broth microdilution MIC assay, S. aureus USA 400. Particulars: Staphylococcus aureus, Table 4. The protocol: (§2) To determine the ability of test compounds to potentiate the inhibition of the growth of bacterial strains, classic cell-based broth microdilution MIC assays were employed. MIC assays are performed according to CLSI methods except where otherwise noted (CLSI, 2011 and CLSI, 2009). The reference strains S. aureus ATCC 29213 (methicillin sensitive), S. aureus ATCC 33591 (methicillin-resistant), E. coli ATCC 25922 (wild-type/QC strain), P. aeruginosa ATCC 27853 (wild-type/QC strain), and the clinical isolate P. aeruginosa PA 8 were used to determine the ability of the exemplary carbapenem compounds to inhibit bacterial growth. An expanded panel of methicillin resistance S. aureus (MRSA) and Pseudomonas was also used to determine the ability of exemplary carbapenem compounds to inhibit bacterial growth across a broader representation of those species. To determine activity in MRSA and in addition to S. aureus ATCC 33591, S. aureus USA 300, USA 400 and USA 600, some of the most common clones found to cause human infection, were also used. To further gauge the impact on the carbapenem compounds due to various resistance mechanisms in Pseudomonas, the following strains were included: P. aeruginosa 35151 (hyper-permeable strain), P. aeruginosa AmexAB-OprM (an efflux pump knockout), and P. aeruginosa PA 3 (a clinical isolate of reduced carbapenem susceptibility). Briefly, cryo-preserved bacterial cultures of clinical strains are streaked for isolation on appropriate agar medium, in this case Mueller Hinton II agar. Following incubation to allow formation of colonies, these plates are sealed with parafilm and stored refrigerated for up to two weeks. For preparation of assay inocula and to ensure low variability, at least 5 colonies are picked from the agar plates with an inoculating loop and aseptically transferred to a culture tube containing 3 mL of Mueller-Hinton Broth (supplemented with divalent cations to required levels based on Manufacturers' specification). The broth culture is grown for 3-5 hours at 37° C. with shaking at 200 rpm. Meanwhile, 2-fold serial dilutions of test compounds are conducted in a 96 well plate with a final volume of 75 μL per well at 2-fold the final desired concentration. After the dilution plates are set up the growing cultures are then diluted in a cuvette containing MH II broth and the optical density is measured at 600 nm. Inocula are diluted such that 75 μL of this culture in Mueller-Hinton Broth results in a starting bacterial concentration of 5×10^5 CFU/mL when added to the dilution plates. The plates are incubated 16-20 hours at 37° C. The MIC is read visually as the lowest concentration well with no bacterial growth.
(§3) Representative results are shown in Tables 3, 4, and 5 where A represents an MIC>32 μg/mL, B represents an MIC between 8 and 32 μg/mL inclusive, C represents an MIC between 1 and 4 μg/mL inclusive, and D represents an MIC of <1 μg/mL. NT=Not Tested.

The subject of assay [3] is S. aureus USA 300. As to the kind of experiment: broth microdilution MIC assay, S. aureus USA 300. Particulars: Staphylococcus aureus; Table 4; S. aureus USA300; read-out: S. aureus USA300 MIC. In a few lines:
as §1

The test system of assay [4] is S. aureus ATCC 33591 (methicillin-resistant). Nature of the assay: broth microdilution MIC assay, S. aureus ATCC 33591. Particulars: Staphylococcus aureus. In a few lines:
as §1

Assay [5] relates to P. aeruginosa 35151 (hyper-permeable strain). As to the kind of experiment: broth microdilution MIC assay, P. aeruginosa 35151. Particulars: Pseudomonas aeruginosa, read-out: P. aeruginosa 35151 MIC. The essentials:
as §1

Assay [6] has as its system P. aeruginosa ATCC 27853 (wild-type/QC strain). As to the kind of experiment: broth microdilution MIC assay, P. aeruginosa ATCC 27853. The note with it: Pseudomonas aeruginosa, ATCC27853, P. aeruginosa 27853, read-out: P. aeruginosa 27853 MIC. In a few lines: as §1
The test system of assay [7] is S. aureus USA600. Nature of the assay: broth microdilution MIC assay, S. aureus USA 600. The note with it: Staphylococcus aureus; Table 4; S. aureus USA600; read-out: S. aureus USA600 MIC. The essentials:
as §1

For assay [8], the system named is clinical isolate P. aeruginosa PA 8. Nature of the assay: broth microdilution MIC assay, P. aeruginosa PA 8. The note with it: Pseudomonas aeruginosa, P. aeruginosa PA8. In a few lines: as §1
The test system of assay [9] is P. aeruginosa ΔmexAB-OprM (an efflux pump knockout). Nature of the assay: broth microdilution MIC assay, P. aeruginosa ΔmexAB-OprM. The note with it: Pseudomonas aeruginosa, 20 h, read-out: P. aeruginosa ΔmexAB-OprM MIC. In a few lines: as §1
For assay [10], the system named is P. aeruginosa PA 3 (a clinical isolate of reduced carbapenem susceptibility). Nature of the assay: broth microdilution MIC assay, P. aeruginosa PA 3. Particulars: Pseudomonas aeruginosa; Table 5; P. aeruginosa PA3. The protocol:
as §2, §3

Assay [11] relates to S. aureus ATCC 29213 (methicillin sensitive). Nature of the assay: broth microdilution MIC assay, S. aureus ATCC 29213. The note with it: Staphylococcus aureus, ATCC 29213 / MSSA; Table 3; S. aureus 29213 (MSSA); read-out: S. aureus 29213 (MSSA) MIC. The protocol: as §2, §3
Where [12] appears, read: ATCC 33591 / MRSA, Table 3, S. aureus 33591 (MRSA), read-out: S. aureus 33591 (MRSA) MIC.
Setting [13] is: ATCC33591, Table 4, S. aureus 33591, read-out: S. aureus 33591 MIC.

For `C[C@@H](O)[C@H]1C(=O)N2C(C(=O)O)=C(S[C@@H]3CCN(CC4CCN(C(=N)N)CC4)C3)[C@H](C)[C@H]12` [Example 35, (4R,5S,6S)-3-(((R)-1-((1-carbamimidoylpiperidin-4-yl)methyl)pyrrolidin-3-yl)thio)-6-((R)-1-hydroxyethyl)-4-methyl-7-oxo-1-azabicyclo[3.2.0]hept-2-ene-2-carboxylic acid], the minimal inhibitory concentration (MIC) in assay [1] (Table 3) was < 1 µg/mL; in assay [1] (Table 4), < 1 µg/mL; in assay [2], 1 to 4 µg/mL; in assay [3] it was < 1 µg/mL; in assay [4] (setting [12]) it was 1 to 4 µg/mL; in assay [4] (setting [13]) it was 1 to 4 µg/mL. The MIC was < 1 µg/mL in assay [5]; 1 to 4 µg/mL in assay [6] (Table 3); 1 to 4 µg/mL in [6] (Table 5); < 1 µg/mL in assay [7]; 1 to 4 µg/mL in assay [8] (Table 3); 1 to 4 µg/mL in assay [8] (Table 5). The MIC in [9] is < 1 µg/mL; in [10] it was 8 to 32 µg/mL; in [11] it was 1 to 4 µg/mL.
Regarding `C[C@@H](O)[C@H]1C(=O)N2C(C(=O)O)=C(S[C@@H]3CCN(CCCN)C3)[C@H](C)[C@H]12` [Example 36, (4R,5S,6S)-3-(((R)-1-(3-aminopropyl)pyrrolidin-3-yl)thio)-6-((R)-1-hydroxyethyl)-4-methyl-7-oxo-1-azabicyclo[3.2.0]hept-2-ene-2-carboxylic acid], the minimum inhibitory concentration (MIC) in assay [1] (Table 3) was < 1 µg/mL; in assay [1] (Table 4), < 1 µg/mL; in assay [2], 8 to 32 µg/mL; in [3], 8 to 32 µg/mL; in assay [4] (setting [12]), > 32 µg/mL; in assay [4] (setting [13]) it was > 32 µg/mL. Besides, the MIC in [6] (Table 3) was 8 to 32 µg/mL; in assay [6] (Table 5), 8 to 32 µg/mL; in assay [8] (Table 3), 8 to 32 µg/mL; in assay [8] (Table 5) it was 8 to 32 µg/mL; in [10] it was > 32 µg/mL.
With `CNCCCCN1CC[C@@H](SC2=C(C(=O)O)N3C(=O)[C@H]([C@@H](C)O)[C@H]3[C@H]2C)C1` [Example 37, (4R,5S,6S)-6-((R)-1-hydroxyethyl)-4-methyl-3-(((R)-1-(4-(methylamino)butyl)pyrrolidin-3-yl)thio)-7-oxo-1-azabicyclo[3.2.0]hept-2-ene-2-carboxylic acid], the minimal inhibitory concentration (MIC) is < 1 µg/mL in [1] (Table 3); < 1 µg/mL in assay [1] (Table 4); 1 to 4 µg/mL in assay [2]; 8 to 32 µg/mL in assay [3]; 8 to 32 µg/mL in assay [4] (setting [12]); 8 to 32 µg/mL in assay [4] (setting [13]). For the same compound, the minimal inhibitory concentration (MIC) in assay [6] (Table 3) fell in the range of 1 to 4 µg/mL; in [6] (Table 5) it was 1 to 4 µg/mL; in [8] (Table 3), 8 to 32 µg/mL; in assay [8] (Table 5), 1 to 4 µg/mL; in assay [10] it was 8 to 32 µg/mL.
For `C[C@@H](O)[C@H]1C(=O)N2C(C(=O)O)=C(S[C@@H]3CCN(C4CCC(N)(CN)CC4)C3)[C@H](C)[C@H]12` (stereo partly drawn) [Example 38, (4R,5S,6S)-3-(((R)-1-(4-amino-4-(aminomethyl)cyclohexyl)pyrrolidin-3-yl)thio)-6-((R)-1-hydroxyethyl)-4-methyl-7-oxo-1-azabicyclo[3.2.0]hept-2-ene-2-carboxylic acid], the MIC in [1] (Table 3) was < 1 µg/mL; in assay [1] (Table 4), < 1 µg/mL; in assay [2], 1 to 4 µg/mL; in assay [3], 8 to 32 µg/mL; in assay [4] (setting [12]) it was 8 to 32 µg/mL; in assay [4] (setting [13]) it was 8 to 32 µg/mL. The MIC in assay [6] (Table 3), in assay [6] (Table 5), in assay [8] (Table 3), in [8] (Table 5) and in assay [10] was 8 to 32 µg/mL in each case.
`C[C@@H](O)[C@H]1C(=O)N2C(C(=O)O)=C(SC3CN(CC4CCNCC4)C3)[C@H](C)[C@H]12` [Example 42, (4R,5S,6S)-6-((R)-1-hydroxyethyl)-4-methyl-7-oxo-3-((1-(piperidin-4-ylmethyl)azetidin-3-yl)thio)-1-azabicyclo[3.2.0]hept-2-ene-2-carboxylic acid]: the minimal inhibitory concentration (MIC) in assay [1] (Table 4) was < 1 µg/mL; in [2], 1 to 4 µg/mL; in assay [3], 1 to 4 µg/mL; in [4] (setting [13]), 1 to 4 µg/mL; in assay [5], < 1 µg/mL; in assay [6] (Table 5), 1 to 4 µg/mL. Moreover, the MIC fell in the range of 1 to 4 µg/mL in assay [7], 1 to 4 µg/mL in assay [8] (Table 5), 1 to 4 µg/mL in [9] and 8 to 32 µg/mL in assay [10].
As for `C[C@@H](O)[C@H]1C(=O)N2C(C(=O)O)=C(SC3CCN(CC4CCNCC4)CC3)[C@H](C)[C@H]12` [Example 44, (4R,5S,6S)-6-((R)-1-hydroxyethyl)-4-methyl-7-oxo-3-((1-(piperidin-4-ylmethyl)piperidin-4-yl)thio)-1-azabicyclo[3.2.0]hept-2-ene-2-carboxylic acid], the MIC in assay [1] (Table 4) was 1 to 4 µg/mL; in [2], 1 to 4 µg/mL; in [3] it was 1 to 4 µg/mL; in assay [4] (setting [13]) it was 8 to 32 µg/mL; in assay [5], < 1 µg/mL; in assay [6] (Table 5) it was 8 to 32 µg/mL. The MIC in assay [8] (Table 5) was in the range of 8 to 32 µg/mL; in assay [9], 1 to 4 µg/mL; in assay [10], 8 to 32 µg/mL.

The MIC is the least concentration at which growth counts as inhibited.
